This is an account of results in US10024856B2, “Identification and characterization of a peptide affinity reagent for the detection of noroviruses in clinical samples” (priority 2013, dated 2018).

For this experiment, the system named is NV-VLP. The settings on record: 0-5 μg NV-VLP adsorbed on 96-well plate; 5×10^10 pfu of phage; HRP-conjugated M13 phage antibody.
NV-VLP, sequence (Q83884 whole entry): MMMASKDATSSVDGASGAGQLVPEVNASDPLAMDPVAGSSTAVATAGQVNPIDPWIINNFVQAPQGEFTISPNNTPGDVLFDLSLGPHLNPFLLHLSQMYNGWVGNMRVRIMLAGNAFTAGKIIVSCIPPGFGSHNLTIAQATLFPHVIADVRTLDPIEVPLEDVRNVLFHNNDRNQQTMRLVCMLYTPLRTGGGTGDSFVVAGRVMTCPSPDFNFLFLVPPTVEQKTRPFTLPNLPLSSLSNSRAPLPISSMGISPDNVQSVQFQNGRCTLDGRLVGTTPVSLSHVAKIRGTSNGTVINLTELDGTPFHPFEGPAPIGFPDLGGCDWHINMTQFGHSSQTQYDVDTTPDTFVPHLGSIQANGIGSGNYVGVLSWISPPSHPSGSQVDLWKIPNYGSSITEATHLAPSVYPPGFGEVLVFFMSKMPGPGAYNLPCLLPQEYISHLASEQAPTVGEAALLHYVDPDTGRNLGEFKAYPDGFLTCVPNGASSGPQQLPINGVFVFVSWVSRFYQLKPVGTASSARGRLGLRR

Method: NV-VLP (5, 2.5, 1.25, 0.63 μg) or 5 μg of unrelated protein BSA was immobilized and binding of each phage, indicated on the X-axis, was detected by M13 phage antibody. OD450 signal is indicated on the Y-axis.
Enzyme-linked immunosorbent assay (ELISA)—Initial ELISA experiments were performed by directly coating 0-5 μg of NV-VLP in 96-well polystyrene plates overnight. Wells were blocked with 2% milk in PBS for 2 hours at room temperature. After washing 3 times with PBS, 1×10^11 phage in 1% milk-PBS were added and incubated at room temperature with gentle rocking for 2 hours. Plates were washed 10 times with PBS-T. HRP-conjugated M13-antibody (Pharmacia Biotech) was diluted 1:5000 in 1% milk PBS and 100 μl was added to each well and incubated at room temperature for 45 minutes. After washing with PBS-T, HRP substrate, 3,3′,5′-tetramethylbenzidine (TMB)(KPL) was added to each well. Development was allowed to proceed for 10-20 minutes and stopped with 1M H3PO4 (KPL). Optical density was measured at 450 nm on a Tecan infinite M200pro plate reader.
The binding of each phage clone to immobilized NV-VLP was tested by phage ELISA. For these experiments, 0-5 μg of NV-VLP or bovine serum albumin (BSA), as a negative control, was adsorbed onto a 96-well plate and 5×10^10 pfu of phage were added to each well and binding was detected with an HRP-conjugated M13 phage antibody (FIG. 1).

As to IQYRSWIPFSYP [NV-O-R5-6], the “Binding to immobilized NV-VLP (ELISA signal, OD450)” value is given as “weakest signals”.
